Data on 4 molecules can be found in ChEMBL document CHEMBL4184156, “Repurposing Hsp90 inhibitors as antibiotics targeting histidine kinases” (Bioorg Med Chem Lett, 2017).

Series [1] has as its system Staphylococcus epidermidis. The experiment in a line: Antimicrobial activity against Staphylococcus epidermidis ATCC 35984 after 10 hrs. The series is classed as functional. To be noted: ATCC 35984, 10 h.
In series [2] the target is T1, Virulence sensor histidine kinase PhoQ (Salmonella typhimurium (strain LT2 / SGSC1412 / ATCC 700720), UniProt P0DM80).
T1 sequence (P0DM80 whole entry): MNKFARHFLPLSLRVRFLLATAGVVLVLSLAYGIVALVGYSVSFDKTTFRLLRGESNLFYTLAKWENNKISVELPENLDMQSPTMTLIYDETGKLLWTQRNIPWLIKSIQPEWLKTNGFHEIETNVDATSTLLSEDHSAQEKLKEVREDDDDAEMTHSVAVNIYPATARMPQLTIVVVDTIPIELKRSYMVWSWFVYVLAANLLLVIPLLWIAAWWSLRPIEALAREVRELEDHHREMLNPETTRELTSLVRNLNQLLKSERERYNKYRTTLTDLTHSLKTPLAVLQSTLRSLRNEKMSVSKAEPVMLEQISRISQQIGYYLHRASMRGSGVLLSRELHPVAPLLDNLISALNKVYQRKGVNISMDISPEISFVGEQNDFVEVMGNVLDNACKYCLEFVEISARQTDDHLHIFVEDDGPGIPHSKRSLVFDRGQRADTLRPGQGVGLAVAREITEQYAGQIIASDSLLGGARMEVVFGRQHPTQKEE
As to the kind of experiment: Displacement of TNP-ATP from recombinant Salmonella typhimurium GST-tagged DHp-catalytic domain PhoQ (332 to 487 residues) expressed in Escherichia coli XA90 aafter 10 mins by fluorescence assay. Also noted: species or system Salmonella enterica subsp. enterica serovar Typhimurium.

Series [3] addresses Cell cycle histidine kinase CckA (Caulobacter vibrioides, UniProt Q9X688). The experiment in a line: Inhibition of recombinant Caulobacter vibrioides cell cycle histidine kinase CckA deltaTM mutant DHp domain (70 to 691 residues) expressed in Escherichia coli in presence of varying levels of ATP measured every 60 secs for 2 hrs by PK/LDH enzyme coupled assay.
Series [4] is described as follows: Hemolytic activity against sheep RBC at 0.5 mM after 30 mins relative to control. The series is classed as ADME, cell-based, Ovis aries, Erythrocyte. To be noted: sheep red blood cells (erythrocytes), read-out: Activity.
Series [5] concerns the target T1, Virulence sensor histidine kinase PhoQ. As to the kind of experiment: Inhibition of recombinant Salmonella typhimurium N-terminal His6-SUMO-tagged DHp-catalytic domain PhoQ (257 to 487 residues) autophosphorylation expressed in Escherichia coli BL21 (DE3) preincubated for 10 mins followed by [gamma-32P]-ATP addition after 30 mins by phosphotransferase dot blot assay. Also noted: species or system Salmonella enterica subsp. enterica serovar Typhimurium.

The target in series [6] is T2, Cell cycle histidine kinase CckA (Caulobacter vibrioides, UniProt Q9X688).
T2 sequence (Q9X688 whole entry): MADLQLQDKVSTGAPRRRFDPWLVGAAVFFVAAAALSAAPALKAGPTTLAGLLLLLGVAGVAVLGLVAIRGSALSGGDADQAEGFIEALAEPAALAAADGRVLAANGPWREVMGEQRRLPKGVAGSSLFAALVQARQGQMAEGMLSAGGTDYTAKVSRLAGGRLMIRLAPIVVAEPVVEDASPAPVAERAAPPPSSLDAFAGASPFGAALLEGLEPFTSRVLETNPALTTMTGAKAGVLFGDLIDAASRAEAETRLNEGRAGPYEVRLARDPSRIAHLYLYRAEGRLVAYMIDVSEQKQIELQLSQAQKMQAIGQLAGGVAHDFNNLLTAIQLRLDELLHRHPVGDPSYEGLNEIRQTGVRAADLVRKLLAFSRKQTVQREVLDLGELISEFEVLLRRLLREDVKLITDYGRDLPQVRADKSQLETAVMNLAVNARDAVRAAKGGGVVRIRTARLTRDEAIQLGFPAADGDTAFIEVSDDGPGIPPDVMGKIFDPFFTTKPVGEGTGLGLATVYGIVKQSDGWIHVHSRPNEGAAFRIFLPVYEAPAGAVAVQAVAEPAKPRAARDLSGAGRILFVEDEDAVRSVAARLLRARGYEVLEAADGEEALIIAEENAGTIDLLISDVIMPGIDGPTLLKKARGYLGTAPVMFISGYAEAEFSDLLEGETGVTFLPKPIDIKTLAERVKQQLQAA
The experiment in a line: Competitive inhibition of Caulobacter vibrioides full length wild type cell cycle histidine kinase CckA deltaTM Escherichia coli BL21-AI in presence of varying levels of ATP measured every 60 secs for 2 hrs by Lineweaver-Burk plot analysis.

For a further series, the system named is Escherichia coli. As to the kind of experiment: Antimicrobial activity against Escherichia coli DC2 after 20 hrs by Mueller-Hinton Broth microdilution method. To be noted: DC2, 20 h. The series is classed as functional. A general note: In broth dilution the organism is exposed to a series of concentrations in liquid medium.
A further series relates to Bacillus subtilis. As to the kind of experiment: Antimicrobial activity against Bacillus subtilis 3610 after 20 hrs by Mueller-Hinton Broth microdilution method. Format: functional. To be noted: subsp. subtilis str. NCIB 3610, 20 h.
Series [7] addresses T3, Sensor protein kinase WalK family protein (Streptococcus pneumoniae PCS8203, UniProt A0A0H2UQD0).
T3 sequence (A0A0H2UQD0 whole entry): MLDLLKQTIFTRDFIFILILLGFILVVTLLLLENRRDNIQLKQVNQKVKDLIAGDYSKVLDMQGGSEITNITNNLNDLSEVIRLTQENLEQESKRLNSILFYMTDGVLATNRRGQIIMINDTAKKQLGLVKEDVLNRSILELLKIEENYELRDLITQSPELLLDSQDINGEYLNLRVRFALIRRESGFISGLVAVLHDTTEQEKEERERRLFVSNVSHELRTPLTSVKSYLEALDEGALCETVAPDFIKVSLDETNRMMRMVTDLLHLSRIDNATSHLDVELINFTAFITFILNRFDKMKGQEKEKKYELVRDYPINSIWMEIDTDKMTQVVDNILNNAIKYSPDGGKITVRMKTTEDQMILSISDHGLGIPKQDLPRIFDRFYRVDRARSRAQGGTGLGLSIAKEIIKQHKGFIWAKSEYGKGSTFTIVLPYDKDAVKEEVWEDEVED
The experiment in a line: Inhibition of Streptococcus pneumoniae VicK preincubated for 30 mins followed by [gamma-33P]ATP addition after 30 mins by SDS-PAGE method.

Values after ≈ are worked out from the molar mass of the structure shown.

The MIC is the lowest concentration that inhibits growth of the organism. `O=C(O)c1ccc(-c2ccc(/C=C3\S/C(=N\c4ccccc4)N(c4ccc(F)cc4)C3=O)s2)cc1` returned an MIC in series [1] of 0.75 µg/mL (≈ 1.5 µM).
What is called Kd is a measure of binding affinity in units of concentration. `CC(C)=CCc1c(O)cc2occ(Cl)c(=O)c2c1O`: the Kd in series [2] came to 391 µM.
In general, IC50 refers to the concentration that inhibits the measured activity by half. What is called Ki is the dissociation constant of the complex between target and ligand, obtained from inhibition or displacement. With `COc1ccc(-c2c(-c3cc(Cl)c(O)cc3O)n[nH]c2C)cc1`, the half-inhibitory concentration (IC50) in series [3] is 12.3 to 14 µM; in series [5], 238 µM. Besides, the hemolysis at 0.5 h, 500 µM in series [4] was 3%. Also, the inhibitory constant (Ki) in series [6] is 3.8 µM.
Regarding `Nc1nc2ccc(Oc3ccc4nc(N)sc4c3)cc2s1`, the minimal inhibitory concentration (MIC) against Escherichia coli is 32 to 64 µg/mL (≈ 102 to 204 µM); against Bacillus subtilis it was 49 to 64 µg/mL (≈ 156 to 204 µM). In addition, in series [7], the concentration for half-maximal inhibition (IC50) amounted to 75 µM.
